Where a SMILES comes first, the peptide text is derived from it. Bridges are numbered along the chain shown (N, C = ends). [ ]: non-standard residue; d: D form. The star is where a group is joined. hPhe(3-Cl-4-CF3) = N[C@@H](CCc1ccc(C(F)(F)F)c(Cl)c1)C(=O)O; NPrPhe(4-CF3) = CCCN[C@@H](Cc1ccc(C(F)(F)F)cc1)C(=O)O; NMeGly(cPent) = CN[C@H](C(=O)O)C1CCCC1; Pro(4,4-F2) = O=C(O)[C@@H]1CC(F)(F)CN1; Hyp = O=C(O)[C@@H]1C[C@@H](O)CN1; NMeL = CN[C@@H](CC(C)C)C(=O)O; Morpholide = C1CN(*)CCO1; Ac5c = NC1(C(=O)O)CCCC1; Aze = O=C(O)[C@@H]1CCN1; Ac4c = NC1(C(=O)O)CCC1; Sar = CNCC(=O)O
Assays:
[1] = molecular target: GDP-bound KRAS wild-type protein (Homo sapiens, UniProt P01116); experiment: Binding to KRAS by surface plasmon resonance (SPR), Single Cycle Kinetics; details: SPR Single Cycle Kinetics, GDP-bound KRAS wild-type protein, 1:1 binding model; read-out: KRAS KD
Chain of GDP-bound KRAS wild-type protein (P01116 whole entry): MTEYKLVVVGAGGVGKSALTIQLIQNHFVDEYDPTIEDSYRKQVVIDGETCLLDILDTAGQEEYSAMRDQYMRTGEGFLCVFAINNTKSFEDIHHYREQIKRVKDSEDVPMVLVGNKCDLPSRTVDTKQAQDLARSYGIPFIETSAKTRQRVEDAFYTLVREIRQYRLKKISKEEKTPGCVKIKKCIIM

[2] = molecular target: GDP-bound HRAS wild-type protein (Homo sapiens, UniProt P01112); experiment: Binding to HRAS by surface plasmon resonance (SPR), Single Cycle Kinetics; details: SPR, GDP-bound HRAS wild-type protein vs GDP-bound KRAS wild-type protein
Chain of GDP-bound HRAS wild-type protein (P01112 whole entry): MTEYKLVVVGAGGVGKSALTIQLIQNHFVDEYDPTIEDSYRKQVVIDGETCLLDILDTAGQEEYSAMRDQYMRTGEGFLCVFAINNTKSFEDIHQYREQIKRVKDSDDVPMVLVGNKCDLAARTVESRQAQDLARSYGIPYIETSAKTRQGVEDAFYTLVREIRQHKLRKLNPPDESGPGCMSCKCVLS

[3] = molecular target: GDP-bound NRAS wild-type protein (Homo sapiens, UniProt P01111); experiment: Binding to NRAS by surface plasmon resonance (SPR), Single Cycle Kinetics; details: SPR, GDP-bound NRAS wild-type protein vs GDP-bound KRAS wild-type protein
Chain of GDP-bound NRAS wild-type protein (P01111 whole entry): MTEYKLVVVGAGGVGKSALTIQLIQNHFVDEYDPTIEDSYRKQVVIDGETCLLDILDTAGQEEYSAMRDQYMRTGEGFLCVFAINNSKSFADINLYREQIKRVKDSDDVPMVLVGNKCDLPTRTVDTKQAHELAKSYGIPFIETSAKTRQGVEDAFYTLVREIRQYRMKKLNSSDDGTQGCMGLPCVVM

Row | SMILES | Kd [1] [nM] | HRAS/KRAS (ratio of KD value for HRAS to KD value for KRAS) [2] | NRAS/KRAS (ratio of KD value for NRAS to KD value for KRAS) [3]
1 | CCCN1C(=O)CN(C)C(=O)CN(C)C(=O)[C@H]([C@@H](C)CC)NC(=O)[C@H](CC(C)C)N(C)C(=O)C[C@@H](C(=O)N(C)C)NC(=O)[C@H](C2CCCC2)N(C)C(=O)C2(CCCC2)NC(=O)[C@@H]2CCCN2C(=O)[C@H](CCc2ccc(C(F)(F)F)c(Cl)c2)NC(=O)CN(C)C(=O)[C@@H]1Cc1ccc(C(F)(F)F)cc1 [PP0355] ([NMeL]I[Sar][Sar][NPrPhe(4-CF3)][Sar][hPhe(3-Cl-4-CF3)]P[Ac5c][NMeGly(cPent)]D-NMe2; lactam N-11) | 0.33 | B (a compound having 3 or more and less than 10 is denoted as B) | B (a compound having 3 or more and less than 10 is denoted as B)
2 | CCCN1C(=O)CN(C)C(=O)CN(C)C(=O)[C@H]([C@@H](C)CC)NC(=O)[C@H](CC(C)C)N(C)C(=O)C[C@@H](C(=O)N(C)C)NC(=O)[C@H](C2CCCC2)N(C)C(=O)C2(CCCC2)NC(=O)[C@@H]2CC(F)(F)CN2C(=O)[C@H](CCc2ccc(C(F)(F)F)c(Cl)c2)NC(=O)CN(C)C(=O)[C@@H]1Cc1ccc(C(F)(F)F)cc1 [PP0357] ([NMeL]I[Sar][Sar][NPrPhe(4-CF3)][Sar][hPhe(3-Cl-4-CF3)][Pro(4,4-F2)][Ac5c][NMeGly(cPent)]D-NMe2; lactam N-11) | 0.4 | B (a compound having 3 or more and less than 10 is denoted as B) | B (a compound having 3 or more and less than 10 is denoted as B)
3 | CCCN1C(=O)CN(C)C(=O)CN(C)C(=O)[C@H]([C@@H](C)CC)NC(=O)[C@H](CC(C)C)N(C)C(=O)C[C@@H](C(=O)N(C)C)NC(=O)[C@H](C2CCCC2)N(C)C(=O)C2(CCC2)NC(=O)[C@@H]2CC(F)(F)CN2C(=O)[C@H](CCc2ccc(C(F)(F)F)c(Cl)c2)NC(=O)CN(C)C(=O)[C@@H]1Cc1ccc(C(F)(F)F)cc1 [PP0358] ([NMeL]I[Sar][Sar][NPrPhe(4-CF3)][Sar][hPhe(3-Cl-4-CF3)][Pro(4,4-F2)][Ac4c][NMeGly(cPent)]D-NMe2; lactam N-11) | 0.33 | C (A compound having a KD ratio of 0.1 or more and less than 3 is denoted as C) | B (a compound having 3 or more and less than 10 is denoted as B)
4 | CCCN1C(=O)CN(C)C(=O)CN(C)C(=O)[C@H]([C@@H](C)CC)NC(=O)[C@H](CC(C)C)N(C)C(=O)C[C@@H](C(=O)N(C)C)NC(=O)[C@H](C2CCCC2)N(C)C(=O)C2(CCCC2)NC(=O)[C@@H]2C[C@@H](OCC)CN2C(=O)[C@H](CCc2ccc(C(F)(F)F)c(Cl)c2)NC(=O)CN(C)C(=O)[C@@H]1Cc1ccc(C(F)(F)F)cc1 [PP0359] ([NMeL]I[Sar][Sar][NPrPhe(4-CF3)][Sar][hPhe(3-Cl-4-CF3)][Hyp](Et)[Ac5c][NMeGly(cPent)]D-NMe2; lactam N-11) | 0.14 | B (a compound having 3 or more and less than 10 is denoted as B) | B (a compound having 3 or more and less than 10 is denoted as B)

More lines, in order of falling Kd [1], values ahead:

Row | Kd [1] [nM] | SMILES | HRAS/KRAS (ratio of KD value for HRAS to KD value for KRAS) [2] | NRAS/KRAS (ratio of KD value for NRAS to KD value for KRAS) [3]
5 | 1 | CCCN1C(=O)CN(C)C(=O)CNC(=O)[C@H]([C@@H](C)CC)NC(=O)[C@H](CC(C)C)N(C)C(=O)C[C@@H](C(=O)N(C)C)NC(=O)[C@H](C2CCCC2)N(C)C(=O)C2(CCC2)NC(=O)[C@@H]2CCCN2C(=O)[C@H](CCc2ccc(C(F)(F)F)c(Cl)c2)NC(=O)CN(C)C(=O)[C@@H]1Cc1ccc(C(F)(F)F)cc1 [PP0362] ([NMeL]IG[Sar][NPrPhe(4-CF3)][Sar][hPhe(3-Cl-4-CF3)]P[Ac4c][NMeGly(cPent)]D-NMe2; lactam N-11) | B (a compound having 3 or more and less than 10 is denoted as B) | B (a compound having 3 or more and less than 10 is denoted as B)
6 | 0.72 | CCCN1C(=O)CN(C)C(=O)CNC(=O)[C@H]([C@@H](C)CC)NC(=O)[C@H](CC(C)C)N(C)C(=O)C[C@@H](C(=O)N(C)C)NC(=O)[C@H](C2CCCC2)N(C)C(=O)C2(CCCC2)NC(=O)[C@@H]2CCCN2C(=O)[C@H](CCc2ccc(C(F)(F)F)c(Cl)c2)NC(=O)CN(C)C(=O)[C@@H]1Cc1ccc(C(F)(F)F)cc1 [PP0361] ([NMeL]IG[Sar][NPrPhe(4-CF3)][Sar][hPhe(3-Cl-4-CF3)]P[Ac5c][NMeGly(cPent)]D-NMe2; lactam N-11) | C (A compound having a KD ratio of 0.1 or more and less than 3 is denoted as C) | B (a compound having 3 or more and less than 10 is denoted as B)
7 | 0.49 | CCCN1C(=O)CN(C)C(=O)CN(C)C(=O)[C@H]([C@@H](C)CC)NC(=O)[C@H](CC(C)C)N(C)C(=O)C[C@@H](C(=O)N(C)C)NC(=O)[C@H](C2CCCC2)N(C)C(=O)C2(CCC2)NC(=O)[C@@H]2CCCN2C(=O)[C@H](CCc2ccc(C(F)(F)F)c(Cl)c2)NC(=O)CN(C)C(=O)[C@@H]1Cc1ccc(C(F)(F)F)cc1 [PP0356] ([NMeL]I[Sar][Sar][NPrPhe(4-CF3)][Sar][hPhe(3-Cl-4-CF3)]P[Ac4c][NMeGly(cPent)]D-NMe2; lactam N-11) | B (a compound having 3 or more and less than 10 is denoted as B) | B (a compound having 3 or more and less than 10 is denoted as B)
8 | 0.44 | CCCN1C(=O)[C@@H]2CCN2C(=O)CN(C)C(=O)[C@H]([C@@H](C)CC)NC(=O)[C@H](CC(C)C)N(C)C(=O)C[C@@H](C(=O)N2CCOCC2)NC(=O)[C@H](C2CCCC2)N(C)C(=O)C2(CCC2)NC(=O)[C@@H]2C[C@@H](OCC)CN2C(=O)[C@H](CCc2ccc(C(F)(F)F)c(Cl)c2)NC(=O)CN(C)C(=O)[C@@H]1Cc1ccc(C(F)(F)F)cc1 [PP0354] ([NMeL]I[Sar][Aze][NPrPhe(4-CF3)][Sar][hPhe(3-Cl-4-CF3)][Hyp](Et)[Ac4c][NMeGly(cPent)]D-Morpholide; lactam N-11) | B (a compound having 3 or more and less than 10 is denoted as B) | C (A compound having a KD ratio of 0.1 or more and less than 3 is denoted as C)
9 | 0.25 | CCCN1C(=O)CN(C)C(=O)CN(C)C(=O)[C@H]([C@@H](C)CC)NC(=O)[C@H](CC(C)C)N(C)C(=O)C[C@@H](C(=O)N(C)C)NC(=O)[C@H](C2CCCC2)N(C)C(=O)C2(CCC2)NC(=O)[C@@H]2C[C@@H](OCC)CN2C(=O)[C@H](CCc2ccc(C(F)(F)F)c(Cl)c2)NC(=O)CN(C)C(=O)[C@@H]1Cc1ccc(C(F)(F)F)cc1 [PP0360] ([NMeL]I[Sar][Sar][NPrPhe(4-CF3)][Sar][hPhe(3-Cl-4-CF3)][Hyp](Et)[Ac4c][NMeGly(cPent)]D-NMe2; lactam N-11) | C (A compound having a KD ratio of 0.1 or more and less than 3 is denoted as C) | B (a compound having 3 or more and less than 10 is denoted as B)

— patent US20240158446A1, “CYCLIC COMPOUND HAVING SELECTIVE INHIBITORY ACTION ON KRAS OVER HRAS AND NRAS” (CHUGAI SEIYAKU KABUSHIKI KAISHA, priority 2021, published 2024)
